Measured values taken from US5837256A, “Method for treatment of Lupus nephritis” (priority 1996, dated 1998).
Values belong to the compound of their own block, whether it stands above or below them.

Columns and labels:
[1] = Lignan content of urine of mice gavaged with SDG; settings: after oral SDG 0.6, 1.2 and 4.8 mg/mouse (FIG. 1)
Description: The mice were dosed with the SDG in amounts of 0.6, 1.2 and 4.8 mg/mouse. Urine samples from the mice were then analysed for lignans.

[2] = Body weight (and food/water intake) of MRL/lpr lupus mice; format: in vivo, MRL/lpr mouse
Description: The MRL/lpr mouse model of lupus was chosen to study the effects of SDG on experimental nephritis since it represents the human disease in terms of immune and inflammatory reactions, and age-related renal function deterioration leading to progressive glomerular scarring. Mice were obtained at 5 weeks of age from Jackson Laboratories, Me., U.S.A., and acclimatized for one week. From 6 weeks of age onwards, all groups were gavaged with 200 μl/day of water. The appropriate amount of SDG was dissolved in the water to administer either the low-dose (600 μg/day) or the high-dose (1200 μg/day) of SDG. This example illustrates the effect of SDG on the body weight of MRL/lpr lupus mice in compared to the control group. The daily dosage was administered over a 17-week period (6 to 22 weeks of age).

[3] = tested on: MRL/lpr mouse model of lupus; experiment: Onset and prevalence of proteinuria (Albustix) in MRL/lpr lupus mice; format: in vivo
Description: (§1) The MRL/lpr mouse model of lupus was chosen to study the effects of SDG on experimental nephritis since it represents the human disease in terms of immune and inflammatory reactions, and age-related renal function deterioration leading to progressive glomerular scarring.
(§2) Mice were obtained at 5 weeks of age from Jackson Laboratories, Me., U.S.A., and acclimatized for one week. From 6 weeks of age onwards, all groups were gavaged with 200 μl/day of water. The appropriate amount of SDG was dissolved in the water to administer either the low-dose (600 μg/day) or the high-dose (1200 μg/day) of SDG.
Gavaging was commenced at the age of 6 weeks in all groups.

[4] = tested on: MRL/lpr mouse model of lupus; experiment: Glomerular filtration rate (14C-inulin clearance) in MRL/lpr mice; format: in vivo
Description: as §1, §2
This example illustrates the effect of SDG on the glomerular filtration rate (GFR) assessed by ^14 C-inulin clearance.

[5] = tested on: MRL/lpr mouse model of lupus; experiment: Cervical lymph node weight in MRL/lpr mice (lymphadenopathy); format: in vivo; settings: for cervical lymph node weights: n = 10
Description: as §1, §2
We therefore examined the effects of low and high dosages of SDG on a deep cervical lymph node in these animals.
The data was non-normally distributed therefore, a non parametric (Kruskal-Wallis) statistical test was used.

[6] = tested on: MRL/lpr mouse model of lupus; experiment: Spleen weight index in MRL/lpr mice (splenomegaly); format: in vivo; settings: for Spleen Weight/Body Weight Ratio (×100): n = 10
Description: as §1, §2
We therefore examined the effects of low and high dosages of SDG on spleen weight. The spleen weight index was obtained as a ratio of spleen to body weight (×100).
Data analyzed by ANOVA followed by Bonferroni t-tests

[7] = Gut absorption/conversion of SDG after oral intake; format: in vivo; settings: human or animal
Description: Enterodiol and enterolactone are trivially referred to as lignans and contain a structural backbone of dibenzylbutane. The most abundant lignan detected in flax is secoisolariciresinol diglucoside (SDG).
The secoisolariciresinol (Seco) may be used per se or in the form of secoisolariciresinol diglucoside (SDG).

[8] = cited from earlier work
[9] = relative to Seco; cited from earlier work
[10] = tested on: LDL cholesterol, cell mediated immunity, PAF production by PMN leucocytes, platelet aggregation; settings: cited from earlier work
[11] = High-Lignan gp (1200 μg/day), age wk9
[12] = High-Lignan gp (1200 μg/day), age wk11
[13] = High-Lignan gp (1200 μg/day), age wk13
[14] = High-Lignan gp (1200 μg/day), age wk15
[15] = High-Lignan gp (1200 μg/day), age wk17
[16] = High-Lignan gp (1200 μg/day), age wk19
[17] = High-Lignan gp (1200 μg/day), age wk21
[18] = Low-Lignan gp (600 μg/day), age wk9
[19] = Low-Lignan gp (600 μg/day), age wk11
[20] = Low-Lignan gp (600 μg/day), age wk13
[21] = Low-Lignan gp (600 μg/day), age wk15
[22] = Low-Lignan gp (600 μg/day), age wk17
[23] = Low-Lignan gp (600 μg/day), age wk19
[24] = Low-Lignan gp (600 μg/day), age wk21

- secoisolariciresinol concentrations in the urine [1]: SDG dose dependent
SMILES: COc1cc(CC(CO)C(CO)Cc2ccc(O)c(OC)c2)ccc1O (stereo not drawn) [secoisolariciresinol]

- mammalian lignans in the urine [1]: only traces
SMILES: OC[C@H](Cc1cccc(O)c1)[C@H](CO)Cc1cccc(O)c1 [enterodiol]

SMILES: COc1cc(C[C@@H](CO[C@@H]2O[C@H](CO)[C@@H](O)[C@H](O)[C@H]2O)[C@H](CO[C@@H]2O[C@H](CO)[C@@H](O)[C@H](O)[C@H]2O)Cc2ccc(O)c(OC)c2)ccc1O [SDG, secoisolariciresinol diglucoside]
- food intake ([2]; 600 and 1200 μg/day): no significant difference
- water intake ([2]; 600 and 1200 μg/day): no significant difference
- body weight gain in the different treatment groups ([2]; 600 and 1200 μg/day, 6 to 22 weeks of age): no significant difference
- Body Weight ([2]; High-Lignan gp (1200 μg/day), age w22): 38 ± 3 g
- Body Weight ([2]; High-Lignan gp (1200 μg/day), age wk5 (before gavage, which began at 6 weeks)): 25 ± 2 g
- Body Weight ([2]; High-Lignan gp (1200 μg/day), age wk7): 26 ± 2 g
- Body Weight [2, 11]: 27 ± 2 g
- Body Weight [2, 12]: 29 ± 2 g
- Body Weight [2, 13]: 31 ± 3 g
- Body Weight [2, 14]: 34 ± 3 g
- Body Weight [2, 15]: 37 ± 3 g
- Body Weight [2, 16]: 38 ± 3 g
- Body Weight [2, 17]: 39 ± 3 g
- Body Weight ([2]; Low-Lignan gp (600 μg/day), age w22): 38 ± 3 g
- Body Weight ([2]; Low-Lignan gp (600 μg/day), age wk5 (before gavage, which began at 6 weeks)): 25 ± 2 g
- Body Weight ([2]; Low-Lignan gp (600 μg/day), age wk7): 26 ± 3 g
- Body Weight [2, 18]: 27 ± 3 g
- Body Weight [2, 19]: 29 ± 3 g
- Body Weight [2, 20]: 31 ± 3 g
- Body Weight [2, 21]: 33 ± 3 g
- Body Weight [2, 22]: 36 ± 3 g
- Body Weight [2, 23]: 37 ± 3 g
- Body Weight [2, 24]: 38 ± 4 g
- % of mice with ≥ 2 proteinuria on Albustix [3, 11]: 0%
- % of mice with ≥ 2 proteinuria on Albustix ([3]; High-Lignan gp (1200 μg/day), age wk 10): 0%
- % of mice with ≥ 2 proteinuria on Albustix [3, 12]: 4%
- % of mice with ≥ 2 proteinuria on Albustix ([3]; High-Lignan gp (1200 μg/day), age wk 12): 4%
- % of mice with ≥ 2 proteinuria on Albustix [3, 13]: 4%
- % of mice with ≥ 2 proteinuria on Albustix ([3]; High-Lignan gp (1200 μg/day), age wk 14): 4%
- % of mice with ≥ 2 proteinuria on Albustix [3, 14]: 7%
- % of mice with ≥ 2 proteinuria on Albustix ([3]; High-Lignan gp (1200 μg/day), age wk 16): 7%
- % of mice with ≥ 2 proteinuria on Albustix [3, 15]: 7%
- % of mice with ≥ 2 proteinuria on Albustix ([3]; High-Lignan gp (1200 μg/day), age wk 18): 21%
- % of mice with ≥ 2 proteinuria on Albustix [3, 16]: 36%
- % of mice with ≥ 2 proteinuria on Albustix ([3]; High-Lignan gp (1200 μg/day), age wk 20): 50%
- % of mice with ≥ 2 proteinuria on Albustix [3, 17]: 43%
- % of mice with ≥ 2 proteinuria on Albustix ([3]; High-Lignan gp (1200 μg/day), age wks 6-8): 0%
- % of mice with ≥ 2 proteinuria on Albustix [3, 18]: 0%
- % of mice with ≥ 2 proteinuria on Albustix ([3]; Low-Lignan gp (600 μg/day), age wk 10): 0%
- % of mice with ≥ 2 proteinuria on Albustix [3, 19]: 0%
- % of mice with ≥ 2 proteinuria on Albustix ([3]; Low-Lignan gp (600 μg/day), age wk 12): 0%
- % of mice with ≥ 2 proteinuria on Albustix [3, 20]: 0%
- % of mice with ≥ 2 proteinuria on Albustix ([3]; Low-Lignan gp (600 μg/day), age wk 14): 17%
- % of mice with ≥ 2 proteinuria on Albustix [3, 21]: 21%
- % of mice with ≥ 2 proteinuria on Albustix ([3]; Low-Lignan gp (600 μg/day), age wk 16): 21%
- % of mice with ≥ 2 proteinuria on Albustix [3, 22]: 23%
- % of mice with ≥ 2 proteinuria on Albustix ([3]; Low-Lignan gp (600 μg/day), age wk 18): 38%
- % of mice with ≥ 2 proteinuria on Albustix [3, 23]: 38%
- % of mice with ≥ 2 proteinuria on Albustix ([3]; Low-Lignan gp (600 μg/day), age wk 20): 38%
- % of mice with ≥ 2 proteinuria on Albustix [3, 24]: 27%
- % of mice with ≥ 2 proteinuria on Albustix ([3]; Low-Lignan gp (600 μg/day), age wks 6-8): 0%
- onset of proteinuria ([3]; low and high dosages): delay the onset of proteinuria
- prevalence of proteinuria ([3]; low and high dosages): reduce the prevalence of proteinuria
- dose dependence of benefit on GFR ([4]; 600 and 1200 μg/day): dose-dependant benefit
- GFR ([4]; High-Lignan (1200 μg/day), 14 wks of age, n = 9): 8.09 ± 2.74 ml/min/kg body weight
- GFR ([4]; High-Lignan (1200 μg/day), 22 wks of age, n = 10): 5.33 ± 3.16 ml/min/kg body weight
- GFR ([4]; Low-Lignan (600 μg/day), 14 wks of age, n = 10): 7.41 ± 3.88 ml/min/kg body weight
- GFR ([4]; Low-Lignan (600 μg/day), 22 wks of age, n = 10): 4.81 ± 1.49 ml/min/kg body weight
- decline of renal function (GFR) ([4]; compared to vehicle treated control group): attenuates the decline of renal function (GFR)
- reducing cell proliferation, a marker of immune and inflammatory activity ([5]; Examples 5 and 6 taken together): moderate benefits
- cervical lymph node weights ([5]; High-Lignan (1200 μg/day), 14 wks of age): 71 ± 65 mg
- cervical lymph node weights ([5]; High-Lignan (1200 μg/day), 22 wks of age, a,b: significantly greater than baseline and than 14 week values): 211 ± 58 mg
- cervical lymph node weights ([5]; Low-Lignan (600 μg/day), 14 wks of age, a: significantly greater than baseline): 97 ± 69 mg
- cervical lymph node weights ([5]; Low-Lignan (600 μg/day), 22 wks of age, a: significantly greater than baseline): 251 ± 91 mg
- increase in lymph node weight ([5]; high dose (1200 μg/day), at/up to 14 weeks of age, Kruskal-Wallis): attenuated the increase in lymph node weight
- spleen weight index in the different groups ([6]; 600 and 1200 μg/day, ANOVA, Bonferroni t-tests): no significant difference
- Spleen Weight/Body Weight Ratio (×100) ([6]; High-Lignan (1200 μg/day), 14 wks of age, marked a): 0.77 ± 0.26
- Spleen Weight/Body Weight Ratio (×100) ([6]; High-Lignan (1200 μg/day), 22 wks of age, marked a,b): 1.74 ± 0.35
- Spleen Weight/Body Weight Ratio (×100) ([6]; Low-Lignan (600 μg/day), 14 wks of age, marked a): 0.93 ± 0.33
- Spleen Weight/Body Weight Ratio (×100) ([6]; Low-Lignan (600 μg/day), 22 wks of age, marked a,b): 1.89 ± 0.39
- spleen weight gain compared to other groups ([6]; high dose SDG group, 14 weeks age-interval): moderately smaller spleen weight gain
- conversion in the gut after oral administration [7]: converted to secoisolariciresinol in the gut
- metabolism on ingestion ([8]; enzymatic hydrolysis and intestinal microflora): enzymatically hydrolyzed to the aglycone and transformed by intestinal microflora into enterodiol and enterolactone
- absorption across the gut wall ([8]; generally accepted for diglycosides): not absorbed across the gut wall
- water solubility compared with Seco [9]: greater water solubility

SMILES: CC/C=C\C/C=C\C/C=C\CCCCCCCC(=O)O [alpha-linolenic acid]
- LDL cholesterol [10]: lower
- PAF production by PMN leucocytes [10]: lower
- cell mediated immunity [10]: lower
- platelet aggregation [10]: lower
